Reference: BindingDB's records for doi:10.1021/jm000130i (Duquesne University, 2000)

Assays:
[1] = biological target: T1, Bifunctional dihydrofolate reductase-thymidylate synthase (Toxoplasma gondii, UniProt Q07422); assay: Inhibitory concentration against Toxoplasma gondii Dihydrofolate reductase
T1 sequence (Q07422 whole entry): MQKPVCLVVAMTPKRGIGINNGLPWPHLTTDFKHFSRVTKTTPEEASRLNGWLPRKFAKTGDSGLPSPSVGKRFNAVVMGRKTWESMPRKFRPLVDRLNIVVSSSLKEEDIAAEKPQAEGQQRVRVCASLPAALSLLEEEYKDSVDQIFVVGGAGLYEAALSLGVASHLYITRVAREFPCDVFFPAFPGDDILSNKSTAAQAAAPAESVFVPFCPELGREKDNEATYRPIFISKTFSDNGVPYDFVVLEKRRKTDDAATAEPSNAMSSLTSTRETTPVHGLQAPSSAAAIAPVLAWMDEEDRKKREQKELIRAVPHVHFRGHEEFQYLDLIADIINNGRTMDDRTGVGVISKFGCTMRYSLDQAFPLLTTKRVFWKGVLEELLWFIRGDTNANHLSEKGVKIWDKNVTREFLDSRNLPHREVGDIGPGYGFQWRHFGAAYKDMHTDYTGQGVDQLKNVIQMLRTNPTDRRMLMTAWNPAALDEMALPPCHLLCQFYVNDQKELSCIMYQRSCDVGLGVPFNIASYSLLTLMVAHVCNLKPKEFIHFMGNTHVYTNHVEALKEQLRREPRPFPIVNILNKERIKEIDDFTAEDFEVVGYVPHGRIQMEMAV

Dihydrofolate reductase = Dihydrofolate reductase (Lacticaseibacillus casei, UniProt P00381); assay: Inhibitory concentration against Lactobacillus casei Dihydrofolate reductase
Sequence of Dihydrofolate reductase (P00381 whole entry): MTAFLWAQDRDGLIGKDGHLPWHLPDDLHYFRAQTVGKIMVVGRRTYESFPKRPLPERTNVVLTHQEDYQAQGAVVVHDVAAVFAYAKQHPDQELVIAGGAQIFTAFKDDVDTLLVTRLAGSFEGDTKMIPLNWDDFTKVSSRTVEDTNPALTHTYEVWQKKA

C/C(=C\c1coc2nc(N)nc(N)c12)c1ccc(C(=O)N[C@@H](CCC(=O)O)C(=O)O)cc1
IC50 [1]: 4.4 µM
IC50 (Dihydrofolate reductase): 4.4 µM
